# Details: 0.1% solution, PBS, 37° C.
compound,measurement,value
"Cc1cc2c(s1)Nc1ccccc1N=C2N1CCN(C)CC1 [Olanzapine, 2-methyl-4-(4-methyl-1-piperazinyl)-10H-thieno[2,3-b][1,5]benzodiazepine]",time for which olanzapine was stable,≥ 14 days
